Results as given in ChEMBL document CHEMBL5512674, “Novel Acyl Thiourea-Based Hydrophobic Tagging Degraders Exert Potent Anti-Influenza Activity through Two Distinct Endonuclease Polymerase Acidic-Targeted Degradation Pathways” (J Med Chem, 2024).
The source made the active and inactive calls. The calls are words filed in the database; no cut-off is given here.

Experiments:
[1] = molecular target: T1, Protein cereblon/Androgen receptor (Homo sapiens) (UniProt P10275+Q96SW2); assay: PROTAC activity at Influenza A virus A/WSN/33(H1N1) flag tagged Polymerase acidic protein/CRBN (unknown origin) expressed in HEK293T cells assessed as degradation of PA expression at 10 uM incubated for 16 hrs by Western blotting analysis; format: cell-based
Influenza A virus [2] = assay: Anti-influenza activity against Influenza A virus A/WSN/33(H1N1) infected in HEK293T cells assessed as reduction in virus-induced cytopathic effect incubated for 48 hrs by CCK-8 assay; format: functional, organism-based; details: HEK-293T
[3] = molecular target: T1, Protein cereblon/Androgen receptor (Homo sapiens); assay: PROTAC activity at Influenza A virus A/WSN/33(H1N1) flag tagged Polymerase acidic protein/CRBN (unknown origin) expressed in HEK293T cells assessed as degradation of PA expression at 5 uM incubated for 24 hrs by Western blotting analysis; format: cell-based
[4] = Stability in human plasma assessed as compound remaining measured after 30 mins by LC-MS/MS analysis; format: ADME, cell-free; details: read-out: Stability
[5] = Hepatic clearance in dog liver microsomes preincubated for 5 mins followed by NADPH addition and measured for 45 mins by LC-MS analysis; format: ADME, Canis lupus familiaris, Microsome; details: time 50 min
Influenza A virus [6] = assay: Anti-influenza activity against Influenza A virus A/PR/8/34 (H1N1) infected in MDCK cells assessed as reduction in virus-induced cytopathic effect incubated for 48 hrs by CCK-8 assay; format: functional, organism-based
[7] = Hepatic extraction ratio in mouse liver microsomes preincubated for 5 mins followed by NADPH addition and measured for 45 mins by LC-MS analysis; format: ADME, Microsome; details: time 50 min, read-out: ERH
[8] = Half life in dog liver microsomes preincubated for 5 mins followed by NADPH addition and measured for 45 mins by LC-MS analysis; format: ADME, Canis lupus familiaris, Microsome; details: time 50 min
Influenza B virus [9] = assay: Anti-influenza activity against Influenza B virus Yamagata/16/88 infected in HEK293T cells assessed as reduction in virus-induced cytopathic effect incubated for 48 hrs by CCK-8 assay; format: functional, organism-based; details: Yamagata/16/88, HEK-293T
[10] = Stability in human plasma assessed as compound remaining measured after 5 mins by LC-MS/MS analysis; format: ADME, cell-free; details: read-out: Stability
Influenza A virus [11] = assay: Anti-influenza activity against Influenza A virus A/PR/8/34 (H1N1) infected in MDCK cells assessed as inhibition of viral growth at 1.6 nM incubated for 48 hrs by luciferase assay relative to control; format: functional
Influenza A virus [12] = assay: Anti-influenza activity against Influenza A virus A/WSN/33(H1N1) infected in MDCK cells assessed as downregulation of nucleoprotein expression at 1.56 to 100 nM incubated for 24 hrs by Western blotting analysis; format: functional, organism-based; details: dose 1.56-100 nM
[13] = Hepatic extraction ratio in dog liver microsomes preincubated for 5 mins followed by NADPH addition and measured for 45 mins by LC-MS analysis; format: ADME, Canis lupus familiaris, Microsome; details: time 50 min, read-out: ERH
[14] = molecular target: von Hippel-Lindau disease tumor suppressor/Polymerase acidic protein (Influenza A virus (A/Puerto Rico/8/1934(H1N1))) (UniProt P03433+P40337); assay: PROTAC activity at Influenza A virus A/WSN/33(H1N1) flag tagged Polymerase acidic protein/VHL (unknown origin) expressed in HEK293T cells assessed as degradation of PA expression at 0.02 to 10 uM incubated for 24 hrs by Western blotting analysis; format: cell-based; details: dose 0.02-10 µM
[15] = Stability in human plasma assessed as compound remaining measured after 15 mins by LC-MS/MS analysis; format: ADME, cell-free; details: read-out: Stability
[16] = Binding affinity to Influenza A virus A/WSN/33(H1N1) flag tagged Polymerase acidic protein assessed as dissociation constant incubated for 48 hrs by microscale thermophoresis assay; details: hek293t
[17] = Half life in mouse liver microsomes preincubated for 5 mins followed by NADPH addition and measured for 45 mins by LC-MS analysis; format: ADME, Microsome; details: time 50 min
[18] = Stability in human plasma assessed as compound remaining measured after 60 mins by LC-MS/MS analysis; format: ADME, cell-free; details: read-out: Stability
[19] = Hepatic clearance in human liver microsomes preincubated for 5 mins followed by NADPH addition and measured for 45 mins by LC-MS analysis; format: ADME, Microsome; details: time 50 min
[20] = Selectivity index, ratio of CC50 for cytotoxicity against human HEK293T cells to EC50 for anti-influenza activity against Influenza A virus A/WSN/33(H1N1) infected in HEK293T cells assessed as reduction in virus-induced cytopathic effect; format: toxicity, cell-based; details: read-out: Ratio CC50/EC50
[21] = Hepatic extraction ratio in human liver microsomes preincubated for 5 mins followed by NADPH addition and measured for 45 mins by LC-MS analysis; format: ADME, Microsome; details: time 50 min, read-out: ERH
[22] = Hepatic clearance in mouse liver microsomes preincubated for 5 mins followed by NADPH addition and measured for 45 mins by LC-MS analysis; format: ADME, Microsome; details: time 50 min
[23] = Stability in human plasma assessed as compound remaining measured after 120 mins by LC-MS/MS analysis; format: ADME, cell-free; details: read-out: Stability
[24] = Cytotoxicity against human HEK293T cells assessed as reduction in cell viability incubated for 48 hrs by CCK-8 assay; format: toxicity, cell-based, HEK-293T
Influenza A virus [25] = assay: Anti-influenza activity against Influenza A virus H3N2 infected in HEK293T cells assessed as reduction in virus-induced cytopathic effect incubated for 48 hrs by CCK-8 assay; format: functional, organism-based; details: H3N2, HEK-293T
[26] = Half life in human liver microsomes preincubated for 5 mins followed by NADPH addition and measured for 45 mins by LC-MS analysis; format: ADME, Microsome; details: time 50 min
[27] = Intrinsic clearance in mouse liver microsomes preincubated for 5 mins followed by NADPH addition and measured for 45 mins by LC-MS analysis; format: ADME, Microsome; details: time 50 min, read-out: CLH
[28] = Stability in human plasma assessed as compound remaining by LC-MS/MS analysis; format: ADME, cell-free
[29] = Cytotoxicity against dog MDCK cells assessed as reduction in cell viability incubated for 48 hrs by CCK-8 assay; format: toxicity, cell-based, Canis lupus familiaris
Influenza B virus [30] = assay: Anti-influenza activity against Influenza B virus Victoria/2/87 infected in HEK293T cells assessed as reduction in virus-induced cytopathic effect incubated for 48 hrs by CCK-8 assay; format: functional, organism-based; details: Victoria/2/87, HEK-293T
[31] = Intrinsic clearance in human liver microsomes preincubated for 5 mins followed by NADPH addition and measured for 45 mins by LC-MS analysis; format: ADME, Microsome; details: time 50 min, read-out: CLH
[32] = Intrinsic clearance in dog liver microsomes preincubated for 5 mins followed by NADPH addition and measured for 45 mins by LC-MS analysis; format: ADME, Canis lupus familiaris, Microsome; details: time 50 min, read-out: CLH
Influenza A virus [33] = assay: Anti-influenza activity against Influenza A virus A/PR/8/34 (H1N1) infected in MDCK cells assessed as inhibition of viral growth at 0.8 nM incubated for 48 hrs by luciferase assay relative to control; format: functional
Influenza A virus [34] = assay: Anti-influenza activity against Influenza A virus A/PR/8/34 (H1N1) infected in MDCK cells assessed as inhibition of viral growth incubated for 48 hrs by luciferase assay; format: functional, organism-based

For CC(C)(C)c1ccc(C(=O)NC(=S)Nc2ccc(NC(=O)CCCCCCCNc3cccc4c3CN(C3CCC(=O)NC3=O)C4=O)cc2)cc1 (stereo not drawn), the Activity [1] was “Active”, the EC50 (Influenza A virus [2]) was > 10 µM and the Activity [3] was “Active”.

CC(C)(C)c1ccc(C(=O)NC(=S)Nc2ccc(N)cc2)cc1 gave a remaining at 0.5 h [4] of 104%, a CLhep predicted [5] of 22 mL/min/kg and an EC50 (Influenza A virus [6]) of 0.024 µM. For the same compound, the hepatic extraction ratio at 0.75 h [7] was 0.735, the half-life [8] was 26.1 min and the EC50 (Influenza B virus [9]) was 0.151 µM. The remaining at 5 min [10] was 101%, the inhibition at 0.0016 µM (Influenza A virus [11]) was 18% and the Activity (Influenza A virus [12]) was “Active”. For the same compound, the hepatic extraction ratio at 0.75 h [13] was 0.712, the Activity [14] was “inactive” and the remaining at 0.25 h [15] was 102%. For the same compound, the EC50 (Influenza A virus [2]) was 0.332 µM, the Kd [16] was 487 µM and the half-life [17] was 21.9 min. For the same compound, the remaining at 1 h [18] was 113%, the CLhep predicted [19] was 7.43 mL/min/kg and the selectivity ratio [20] was 218. It also gave a hepatic extraction ratio at 0.75 h [21] of 0.359, a CLhep predicted [22] of 66.1 mL/min/kg and a remaining at 2 h [23] of 112%. The CC50 at 48 h [24] was 72.3 µM, the EC50 (Influenza A virus [25]) was > 10 µM and the half-life [26] was 138 min. For the same compound, the CLint scaled [27] was 249 mL/min/kg, the Stability [28] was 100% and the CC50 at 48 h [29] was > 200 µM. For the same compound, the EC50 (Influenza B virus [30]) was 0.167 µM, the CLint scaled [31] was 11.6 mL/min/kg and the CLint scaled [32] was 76.5 mL/min/kg.

With O=C1c2c(O)c(=O)ccn2N([C@@H]2c3ccccc3SCc3c2ccc(F)c3F)[C@@H]2COCCN12 [BALOXAVIR] the EC50 (Influenza B virus [9]) was 0.071 µM, the Activity (Influenza A virus [12]) was “Active” and the EC50 (Influenza A virus [2]) was 0.004 µM. The inhibition at 0.0008 µM (Influenza A virus [33]) was 21%, the selectivity ratio [20] was 16600 and the CC50 at 48 h [24] was 63.1 µM. The EC50 (Influenza A virus [25]) was 0.005 µM, the IC50 (Influenza A virus [34]) was 0.00149 µM and the CC50 at 48 h [29] was 30.9 µM. The EC50 (Influenza B virus [30]) was 0.006 µM.
